Measured values reported in patent US10624917B2, “Compositions and methods useful for treating or preventing liver diseases or disorders, and promoting weight loss” (YALE UNIVERSITY, priority 2014, dated 2020).
“Also recorded” adds a separate entry of the source.

Tested on: IL-1β production in murine peritoneal macrophages (PECs)
Experiment: IL-1β secretion (ELISA) by primed, ATP-pulsed peritoneal macrophages (PECs)
Type: cell-based, mouse
Description: FIGS. 1A-1J illustrate the finding that adenosine stimulates IL-1β production in NLRP3 inflammasome-dependent manner. Murine peritoneal macrophages (PECs) were obtained from wild type (WT) mice (FIGS. 1A-1D, 1F-1I), Il1r−/− (FIG. 1E) or Nlrp3−/−, ASC−/−, P2xr7−/−, or Caspase-1−/− mice (FIG. 1J) and were primed with LPS for 16 hours. FIG. 1A: This was followed by treatment for 1 hour with adenosine (Ad, 100 μM), adenosine deaminase inhibitor (EHNA, 10 μM), adenosine deaminase (ADA, 10 U ml^−1), ATP diphosphohydrolase (Apyrase, 10 U ml^−1), or erythro-9-(2-hydroxy-3-nonyl) adenine (EHNA, 10 μM) (FIGS. 1B, 1F-1J)). Pan adenosine agonist (NECA, 1 μM, 10 μM) (FIGS. 1C, 1E), or (FIGS. 1D, 1I) by NECA for 1 and 6 hours, and were then pulsed with ATP for 20 min. Enzyme-linked immunosobent assay (ELISA) of IL-1β, TNF-α, IL-10 and IFN-γ secretion were measured in cell supernatants after pulsing with ATP for 5 hours (FIGS. 1A, 1C-1E, 1J) or indicated time-course (FIGS. 1B, 1G-1I). LDH assay was performed after pulsing with ATP as indicated time-course (FIG. 1F). Data are expressed as the mean±SD from at least three independent experiments. *p<0.05 determined by Student's t-test.
C57BL/6 mice were purchased from the National Cancer Institute. ASC−/−, Caspase-1−/−, Nlrp3−/− and P2xr7−/− mice have been described (Rock et al., 2010, Annu Rev Immunol. 28:321-42). A2ora2a flox/flox mice and LysMcre mice were purchased from Jackson Laboratories. HIF-1a flox/flox mice were kindly provided by Dr. Ruslan M Medzhitov (Yale University). 7- to 12-week-old males with a variety of genetic manipulations were used in most experiments. The number of mice in each experimental group was chosen based on previous experience with these experimental models. Mouse peritoneal macrophages (PECs) were isolated by peritoneal lavage 3 days after intraperitoneal injection of 4% thioglycollate solution (B2551, Fluka,). Cells were plated at the density of 3×10^6 cells in 12-well dishes and non-adherent cells were removed after 3 h. Cells primed overnight with 100 ng/ml LPS or 10 ng/ml Pam3CSK4 were treated with various chemicals and followed stimulation. Cells were cultured in DMEM medium complemented with 10% FBS, penicillin/streptomycin and L-glutamine. Mouse bone marrow derived macrophages were isolated from bone marrow cells, and were differentiated for 7 days in complete RPMI-1640 medium supplemented with 2 mM L-glutamine, 100 U/ml penicillin, 100 μg/ml streptomycin, 50 μM 2-mercaptoethanol (all from Invitrogen), 10% heat-inactivated FBS and 20 ng/ml M-CSF (PeproTech). Kupffer cells (KC) were isolated by the density gradient separation of Optiprep (Sigma), and then plates were gently washed and media was replenished after seeding cells for 2 hours to raise KC purity.
Primed PECs were both pulsed for 20 min with 5 mM ATP or 10 μM nigericin, and left untreated until culture supernatants were collected. Secretion of IL-1β was determined by enzyme-linked immunoabsorbent assay (ELISA; R&D Systems).

[1] = LPS-primed PECs pulsed with ATP
[2] = PECs from A2A receptor deficient cells

CCNC(=O)[C@H]1O[C@@H](n2cnc3c(N)nc(NCCc4ccc(CCC(=O)O)cc4)nc32)[C@H](O)[C@@H]1O [CGS21680]
IL-1β production [1]: increase IL-1β production to a comparable degree to NECA and EHNA | IL-1β production [2]: not increased

CCNC(=O)[C@H]1O[C@@H](n2cnc3c(N)ncnc32)[C@H](O)[C@@H]1O [NECA, 5′-(N-ethylcarboxamido) adenosine]
IL-1β production in wild-type vs IL-1 receptor deficient macrophages (LPS + ATP): to a similar degree | IL-1β production [1]: stimulated an increase; also recorded: increased | IL-1β production [2]: not increased | IL-1β production by LPS and ATP (macrophages lacking caspase-1, NLRP3, ASC or P2x7 receptor): did not result in significant production of IL-1β
